Laboratory results taken from ChEMBL document CHEMBL1127121, “Benzofuran based angiotensin II antagonists related to GR117289: Part III; GR138950, a triflamide with high oral bioavailability” (Bioorg Med Chem Lett, 1993).

Tests used:
[1] = Bioavailability in rat; format: ADME, organism-based; settings: in vivo
[2] = molecular target: T1, Type-1 angiotensin II receptor (Oryctolagus cuniculus) (UniProt P34976); experiment: Affinity for Angiotensin II receptor, type 1 by measuring its ability to antagonise the contractile effect of AngII in rabbit isolated thoracic aorta; format: functional, tissue-based
T1 sequence (whole entry): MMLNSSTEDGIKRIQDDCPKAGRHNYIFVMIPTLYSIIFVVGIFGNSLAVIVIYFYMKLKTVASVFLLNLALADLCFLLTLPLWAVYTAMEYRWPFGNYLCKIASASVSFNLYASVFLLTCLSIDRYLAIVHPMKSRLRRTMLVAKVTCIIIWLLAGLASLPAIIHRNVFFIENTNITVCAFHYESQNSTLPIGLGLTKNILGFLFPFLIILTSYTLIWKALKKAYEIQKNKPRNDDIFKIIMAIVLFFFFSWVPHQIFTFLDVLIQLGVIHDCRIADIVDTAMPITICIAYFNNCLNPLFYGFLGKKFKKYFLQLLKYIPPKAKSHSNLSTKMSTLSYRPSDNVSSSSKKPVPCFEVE

[3] = The compound was evaluated for plasma clearance in rat; format: ADME, organism-based; settings: read-out: Clp
[4] = The compound was evaluated for plasma half life period in rat; format: ADME, organism-based
[5] = The compound was evaluated for volume of distribution in rat; format: ADME, organism-based; settings: in vivo

Row | Compound | bioavailability [1] | pKB [2] | clearance [3] | half-life [4] | Vd [5]
1 | CCc1nc(C)c(C(=O)NC)n1Cc1ccc2oc(-c3ccccc3NS(=O)(=O)C(F)(F)F)c(Br)c2c1 | 95% | 9 | 42 mL/min/kg | 1.2 h | 4.3 L/kg
2 | CCc1nc(C)c(C(=O)N(C)C)n1Cc1ccc2oc(-c3ccccc3NS(=O)(=O)C(F)(F)F)c(Br)c2c1 |  | 9.1 |  |  | 
3 | CCCCc1nc(Cl)c(C(=O)O)n1Cc1ccc2oc(-c3ccccc3-c3nn[nH]n3)c(Br)c2c1 [ZOLASARTAN] | 3% |  | 0.8 mL/min/kg | 8 h | 0.5 L/kg
4 | CCc1nc(CC)n(Cc2ccc3oc(-c4ccccc4NS(=O)(=O)C(F)(F)F)c(Br)c3c2)c1C(=O)NC |  | 9 |  |  | 
5 | CCc1nc(C)c(C(N)=O)n1Cc1ccc2oc(-c3ccccc3NS(=O)(=O)C(F)(F)F)c(Br)c2c1 |  | 9 |  |  | 
6 | CCNC(=O)c1c(C)nc(CC)n1Cc1ccc2oc(-c3ccccc3NS(=O)(=O)C(F)(F)F)c(Br)c2c1 |  | 9.5 |  |  | 
7 | CCc1nc(C(C)C)c(C(=O)NC)n1Cc1ccc2oc(-c3ccccc3NS(=O)(=O)C(F)(F)F)c(Br)c2c1 |  | 8.1 |  |  | 
8 | CCc1nc(CC(C)C)c(C(=O)NC)n1Cc1ccc2oc(-c3ccccc3NS(=O)(=O)C(F)(F)F)c(Br)c2c1 |  | < 8 |  |  | 
9 | CCc1nc(C2CC2)c(C(N)=O)n1Cc1ccc2oc(-c3ccccc3NS(=O)(=O)C(F)(F)F)c(Br)c2c1 [SAPRISARTAN] | 79% | 9 | 8.9 mL/min/kg | 3.2 h | 2.4 L/kg
10 | CCc1nc(C2CC2)c(C(=O)NC)n1Cc1ccc2oc(-c3ccccc3NS(=O)(=O)C(F)(F)F)c(Br)c2c1 |  | 9.7 |  |  | 
11 | CCc1nc(C)c(C(=O)NCC(F)(F)F)n1Cc1ccc2oc(-c3ccccc3NS(=O)(=O)C(F)(F)F)c(Br)c2c1 |  | 9.2 |  |  | 
